Where a name gives a salt, the structure may show the parent alone.
What was measured:
Type in all cases: in vivo
[1] = test system: Narrow-leaved Plants (a, b, c, k); experiment: Average withering rate, single and mixed solutions (Test Example 11); set-up: unit: %; settings: 3 weeks
Excerpt: (§1) The alphabetical symbols in Tables 2 and 3 represent the following plants, respectively: a: Digitaria adscendens b: Setaria viridis c: Sorghum halepense d: Chenopodium album var. centrorubrum e: Amaranthus mangostanus f: Astragalus sinicus g: Abutilon theophrosti h: Solanum nigrum i: Xanthium strumarium j: Soybean; Glycine max k: Corn; Zea mays Table 2
(§2) In each run, the compound (1) according to the invention only or the N-phosphonomethylglycine derivatives (117) only or the mixture thereof were used as in the Test Example 1 to prepare single solutions and mixed solutions by using various amounts of each components. Each of the preparations were applied to the plants as in Test Example 1 and the cultivation was continued for 3 weeks without additive application thereafter.
(§3) The results were analyzed by Tammes's method [Tammes, P.M.L.: Neth. J. Plant Path., 70, 73-80 (1964)] which was cited in "Zasso Kenkyuu" (in Japanese) (Weed Studies) 14, 12-18 […] and shown in Fig. 1 and Fig. 2.
(§4) Fig. 1 represents the average withering rate of 4 kinds of narrow-leaved plants (a, b, c, and k), while Fig. 2 gives withering rate of 7 kinds of broad-leaved plants (d, e, f, g, h, i j). As these figures show clearly, the curve binding the points of 95 % effect is inside the one of the synergistic effect, thus it can be concluded that the mixed preparation has synergistic effect.

[2] = test system: Broad-leaved Plants (d, e, f, g, h, i, j); experiment: as above; set-up: unit: %; settings: 3 weeks
Excerpt: as §1, §2, §3, §4

[3] = test system: Amaranthus mangostanus; experiment: Herbicidal activity, foliar application of single compounds (Test Examples 1 to 5); set-up: key: 0 means the state where the plants are as sound as before the application of the active compound; 1, 2, 3 and 4 mean varying degrees of the enfeebled state of the plants between 0 and 5; 1, 2, 3 and 4 mean varying degrees of the enfeebled state of the plants between 0 and 5; 1, 2, 3 and 4 mean varying degrees of the enfeebled state of the plants between 0 and 5; 1, 2, 3 and 4 mean varying degrees of the enfeebled state of the plants between 0 and 5; 5 is the state where the plants are withered or killed by application of the active compound; settings: 3 weeks after application
Procedure: (§5) In these examples, all parts means parts by weight, unless otherwise noted. The herbicidal activity was evaluated on a scale of 6 degrees. In other words, 0 means the state where the plants are as sound as before the application of the active compound, while 5 is the state where the plants are withered or killed by application of the active compound, and 1, 2, 3 and 4 mean varying degrees of the enfeebled state of the plants between 0 and 5.
(§6) The diphenyl ethers shown in Table 2 were added to 5000 parts of a mixture of acetone and water (1 : 1 by volume), and 2.6 parts of a nonionic surfactant (Sorpol 2680, tradename) was added to form a solution, so that the ether becomes the prescribed amount in each solution.
(§7) Seeds of plants were sown in the soil, cultivated for 2 to 3 weeks, after germination, then the plants were used for the tests.
(§8) The prepared solution was applied to these plants at the prescribed rate of application in total, then the plants were continuously cultivated for 3 weeks without applying the solution.
as §1

[4] = test system: Soybean; Glycine max; experiment: as above; set-up: key: 0 means the state where the plants are as sound as before the application of the active compound; 1, 2, 3 and 4 mean varying degrees of the enfeebled state of the plants between 0 and 5; 1, 2, 3 and 4 mean varying degrees of the enfeebled state of the plants between 0 and 5; 1, 2, 3 and 4 mean varying degrees of the enfeebled state of the plants between 0 and 5; 1, 2, 3 and 4 mean varying degrees of the enfeebled state of the plants between 0 and 5; 5 is the state where the plants are withered or killed by application of the active compound; settings: 3 weeks after application
Procedure: as §5, §6, §7, §8, §1

[5] = test system: Setaria viridis; experiment: as above; set-up: key: 0 means the state where the plants are as sound as before the application of the active compound; 1, 2, 3 and 4 mean varying degrees of the enfeebled state of the plants between 0 and 5; 1, 2, 3 and 4 mean varying degrees of the enfeebled state of the plants between 0 and 5; 1, 2, 3 and 4 mean varying degrees of the enfeebled state of the plants between 0 and 5; 1, 2, 3 and 4 mean varying degrees of the enfeebled state of the plants between 0 and 5; 5 is the state where the plants are withered or killed by application of the active compound; settings: 3 weeks after application
Procedure: as §5, §6, §7, §8, §1

[6] = test system: Sorghum halepense; experiment: as above; set-up: key: 0 means the state where the plants are as sound as before the application of the active compound; 1, 2, 3 and 4 mean varying degrees of the enfeebled state of the plants between 0 and 5; 1, 2, 3 and 4 mean varying degrees of the enfeebled state of the plants between 0 and 5; 1, 2, 3 and 4 mean varying degrees of the enfeebled state of the plants between 0 and 5; 1, 2, 3 and 4 mean varying degrees of the enfeebled state of the plants between 0 and 5; 5 is the state where the plants are withered or killed by application of the active compound; settings: 3 weeks after application
Procedure: as §5, §6, §7, §8, §1

[7] = test system: Xanthium strumarium; experiment: as above; set-up: key: 0 means the state where the plants are as sound as before the application of the active compound; 1, 2, 3 and 4 mean varying degrees of the enfeebled state of the plants between 0 and 5; 1, 2, 3 and 4 mean varying degrees of the enfeebled state of the plants between 0 and 5; 1, 2, 3 and 4 mean varying degrees of the enfeebled state of the plants between 0 and 5; 1, 2, 3 and 4 mean varying degrees of the enfeebled state of the plants between 0 and 5; 5 is the state where the plants are withered or killed by application of the active compound; settings: 3 weeks after application
Procedure: as §5, §6, §7, §8, §1

[8] = test system: Chenopodium album var. centrorubrum; experiment: as above; set-up: key: 0 means the state where the plants are as sound as before the application of the active compound; 1, 2, 3 and 4 mean varying degrees of the enfeebled state of the plants between 0 and 5; 1, 2, 3 and 4 mean varying degrees of the enfeebled state of the plants between 0 and 5; 1, 2, 3 and 4 mean varying degrees of the enfeebled state of the plants between 0 and 5; 1, 2, 3 and 4 mean varying degrees of the enfeebled state of the plants between 0 and 5; 5 is the state where the plants are withered or killed by application of the active compound; settings: 3 weeks after application
Procedure: as §5, §6, §7, §8, §1

[9] = test system: Digitaria adscendens; experiment: as above; set-up: key: 0 means the state where the plants are as sound as before the application of the active compound; 1, 2, 3 and 4 mean varying degrees of the enfeebled state of the plants between 0 and 5; 1, 2, 3 and 4 mean varying degrees of the enfeebled state of the plants between 0 and 5; 1, 2, 3 and 4 mean varying degrees of the enfeebled state of the plants between 0 and 5; 1, 2, 3 and 4 mean varying degrees of the enfeebled state of the plants between 0 and 5; 5 is the state where the plants are withered or killed by application of the active compound; settings: 3 weeks after application
Procedure: as §5, §6, §7, §8, §1

[10] = Compound (1) 0 kg a.i./ha, Compound (117) 0.094 kg a.i./ha
[11] = Compound (1) 0 kg a.i./ha, Compound (117) 0.188 kg a.i./ha
[12] = Compound (1) 0 kg a.i./ha, Compound (117) 0.375 kg a.i./ha
[13] = Compound (1) 0 kg a.i./ha, Compound (117) 0.750 kg a.i./ha
[14] = Rate of Application 0.016 kg/ha
[15] = Rate of Application 0.031 kg/ha
[16] = Compound (1) 0.008 kg a.i./ha, Compound (117) 0 kg a.i./ha
[17] = Compound (1) 0.016 kg a.i./ha, Compound (117) 0 kg a.i./ha
[18] = Compound (1) 0.031 kg a.i./ha, Compound (117) 0 kg a.i./ha

O=C(O)CNCP(=O)(O)O [Compound (117), N-phosphonomethylglycine isopropylammonium salt]
Average Withering Rates of Narrow-leaved Plants (a, b, c, k) [1, 10]: 50 | Average Withering Rates of Narrow-leaved Plants (a, b, c, k) [1, 11]: 87 | Average Withering Rates of Narrow-leaved Plants (a, b, c, k) [1, 12]: 87 | Average Withering Rates of Narrow-leaved Plants (a, b, c, k) [1, 13]: 95 | Average Withering Rates of Broad-leaved Plants (d, e, f, g, h, i, j) [2, 10]: 4 | Average Withering Rates of Broad-leaved Plants (d, e, f, g, h, i, j) [2, 11]: 36 | Average Withering Rates of Broad-leaved Plants (d, e, f, g, h, i, j) [2, 12]: 55 | Average Withering Rates of Broad-leaved Plants (d, e, f, g, h, i, j) [2, 13]: 80

COC(=O)C(C)Oc1cc(Oc2ccc(C(F)(F)F)cc2Cl)ccc1C#N (stereo not drawn) [Compound (1), Methyl α-[2-cyano-5-(2-chloro-4-trifluoromethylphenoxy)phenoxy]propionate]
herbicidal activity, Plants e [3, 14]: 5 | herbicidal activity, Plants e [3, 15]: 5 | herbicidal activity, Plants j [4, 14]: 4 | herbicidal activity, Plants j [4, 15]: 4 | herbicidal activity, Plants b [5, 14]: 3 | herbicidal activity, Plants b [5, 15]: 4 | herbicidal activity, Plants c [6, 14]: 5 | herbicidal activity, Plants c [6, 15]: 5 | herbicidal activity, Plants i [7, 14]: 5 | herbicidal activity, Plants i [7, 15]: 5 | herbicidal activity, Plants d [8, 14]: 5 | herbicidal activity, Plants d [8, 15]: 5 | herbicidal activity, Plants a [9, 14]: 4 | herbicidal activity, Plants a [9, 15]: 4 | Average Withering Rates of Narrow-leaved Plants (a, b, c, k) [1, 16]: 33 | Average Withering Rates of Narrow-leaved Plants (a, b, c, k) [1, 17]: 47 | Average Withering Rates of Narrow-leaved Plants (a, b, c, k) [1, 18]: 80 | Average Withering Rates of Narrow-leaved Plants (a, b, c, k) ([1]; Compound (1) 0.063 kg a.i./ha, Compound (117) 0 kg a.i./ha): 93 | Average Withering Rates of Broad-leaved Plants (d, e, f, g, h, i, j) [2, 16]: 80 | Average Withering Rates of Broad-leaved Plants (d, e, f, g, h, i, j) [2, 17]: 80 | Average Withering Rates of Broad-leaved Plants (d, e, f, g, h, i, j) [2, 18]: 96
